Results on two compounds are retold here after US9988381B2, “Five-member-heterocycle fused pyridine compounds, method of producing the same, and use thereof” (SHANGHAI INSTITUTE OF MATERIA MEDICA, CHINESE ACADEMY OF …, priority 2013, dated 2018).

Structures are written as SMILES. Where two headings read alike, the source gives them in different places.

In series [1] the target is T1, c-Met kinase domain recombinant protein (Homo sapiens, UniProt P08581).
T1 construct: 50 μL diluted solution of c-Met kinase domain recombinant protein in reaction buffer was added to initiate the reaction
Description: biochemical. The note with it: read-out: Inhibition rate at 10 μM (%). A digest of the protocol:
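ELISA on plates coated with Poly(Glu,Tyr)4:1 (20 μg/mL), kinase reaction with c-Met kinase domain and ATP in HEPES pH 7.4 buffer with MgCl2, MnCl2, Na3VO4 and DTT, 1 h at 37 °C. Phosphotyrosine detected with PY99 and HRP secondary antibody, read at 490 nm; inhibition rate calculated against ATP-free control.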

Series [2] relates to BaF3/TPR-Met cell. The series is described as follows: Test III: growth inhibition of engineered BaF3/TPR-Met cells (MTT). The settings on record: Mus musculus, BaF3, 72 h. It is filed as cell-based. How it is done: Assays on the growth inhibition of the compounds against engineered BaF3/TPR-Met cell (engineered cell line having TPR-Met fusion protein stably expressed in cytoplasm, persistently activated, Met dependent sensitive cell line; BaF3 cell was purchased from DSMZ, German) were detected using microculture tetrozolium (MTT) staining. A certain amount of BaF3/TPR-Met cells at log phase were inoculated into 96-well culture plate at 90 µL per well, incubated overnight and then 10 μL compound at various concentrations or vehicle control (normal saline) was added, each concentration was tested in triplicate. After incubation with compound for 72 hours, the incubation was terminated, MTT solution (5 mg/mL) was added at 20 μL per well, incubated at 37° C. for 4 hours, then 100 μL triplet solution (10% SDS−5% isobutanol−0.01M HCl) was added, incubated overnight at 37° C., OD value was measured at 570 nm. […] Experiments were conducted in duplicates.

The target of series [3] is T1, c-Met kinase domain recombinant protein. Description: biochemical. The note with it: for inhibition at 0.1 µM: read-out: Average inhibition rate at 0.1 μM (%); for inhibition at 1 µM: read-out: Average inhibition rate at 1 μM (%); for inhibition at 10 µM: read-out: Average inhibition rate at 10 μM (%). A digest of the protocol: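 ELISA on plates coated with Poly(Glu,Tyr)4:1 (20 μg/mL coating solution). Recombinant c-Met kinase domain reacted with 5 μM ATP in HEPES pH 7.4 with Mg/Mn, vanadate and DTT for 1 hour at 37° C. Phosphotyrosine was detected with PY99 and HRP secondary antibody, read at 490 nm, and IC50 was taken from a four-parameter fit.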

The test system of series [4] is human malignant glioblastoma cell U87MG xenograft. Description: Test V: human malignant glioblastoma U87MG xenograft in nude mice. It is filed as in vivo. As to the method: U87-MG cells were expanded by in vitro culture, cells at log phase were harvested and resuspended in EMEM, adjusted to a cell density of 2.8×10^7/mL, then implanted subcutaneously in the right axilla of nude mice.
During the trial, tumor diameters and animal weights were measured twice a week. Tumor Volume (TV) was calculated by the following equation: TV=1/2×a×b^2, wherein a, b represent length and width, respectively. Based on the measurement, Relative Tumor Volume (RTV) was calculated by the following equation: RTV=Vt/V0, wherein V0 is the tumor volume measured when divided for administration (i.e., d0), Vt is the tumor volume measured at each timepoint.

Series [5] relates to MKN45 cell. Description: Test III: growth inhibition of gastric tumor cell MKN45 (SRB). The note with it: Homo sapiens, 72 hours. It is filed as cell-based. As to the method:
Assays on the growth inhibition of the compounds against gastric tumor cell MKN45, non-small cell carcinoma EBC-1 cell (both are MET persistent activated cell lines due to MET gene amplification, and are Met dependent tumor cell lines, MKN45 cell was purchased from JCRB, Japan, EBC-1 cell was purchased from ATCC, USA) were detected using sulforhodamine B (SRB) staining. […] After incubation with compound for 72 hours, the incubation was terminated, adherent cells were retained and medium was discarded, 10% (w/v) trichloroacetic acid (100 μL pre well) was added, the cells were fixed at 4° C. for 1 hour, then rinsed with distilled water for 5 times, after dried at room temperature, SRB solution (4 mg/mL, dissolved in 1% glacial acetic acid) was added at 100 μL per well, incubated and stained at room temperature for 15 minutes, then rinsed with 1% glacial acetic acid for 5 times to remove any unbound SRB, dried at room temperature, then 10 mM Tris solution was added at 100 μL per well, the optical density (OD) value at 515 nm was measured using VERSMax microplate reader.
Experiments were conducted in duplicates. IC50 value was calculated by fitting the data for a four parameter fit using inhibition curve, the results are shown below in Table 2.

[6] abbreviates: 50 mg/kg po qd/14, end of administration.

T1 sequence (P08581 1078-1345 limits assumed): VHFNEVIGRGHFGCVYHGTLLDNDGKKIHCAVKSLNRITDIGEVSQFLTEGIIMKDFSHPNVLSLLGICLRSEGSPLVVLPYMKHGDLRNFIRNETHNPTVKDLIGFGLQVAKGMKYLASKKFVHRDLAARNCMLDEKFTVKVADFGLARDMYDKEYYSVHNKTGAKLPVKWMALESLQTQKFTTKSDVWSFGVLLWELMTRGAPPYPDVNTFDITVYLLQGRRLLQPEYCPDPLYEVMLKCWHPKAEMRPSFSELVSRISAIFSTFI

On to `Cn1cc(-c2cnc3cnn(S(=O)(=O)c4cnc5ccccn45)c3c2)cn1` [Compound 19, 1-(imidazo[1,2-a]pyridine-3-sulfonyl)-6-[(1-methyl)-4-pyrazolyl]-1-H-pyrazolo[4,3-b]pyridine], for which the inhibition at 10 µM in series [1] is 59.3%. In series [2] (read-out: Cell proliferation inhibition rate at 200 nM (%)), the inhibition at 0.2 µM is 91.8%. Besides, the inhibition at 1 µM in series [2] (read-out: Cell proliferation inhibition rate at 1 μM (%)) is 95.6%. For the same compound, in series [3], the IC50 stood at 7.8 ± 0.8 nM, the inhibition at 0.1 µM was 59.2%, the inhibition at 1 µM is 53.5% and the inhibition at 10 µM was determined as 59.3%. Further, the “state and survival of mice during the administration period” value in series [4] (50 mg/kg daily for 14 days) was “in good state and were survived”. In series [4] (50 mg/kg daily, d14), the “antitumor activity (in words)” value is “favorable antitumor activity”. In series [4] (setting [6]), the “RTV (mean ± SE)” value worked out at 77.0 ± 5.2; the “TV (mm^3, mean ± SE) d21” value was found to be 140 ± 20 mm^3; the “Weight (g) d21” value is reported as 24.5 g. The “GI (%)” value in series [4] (50 mg/kg po qd/14, end of the trial) came to 102.41%. Also, the “T/C (%)” value in series [4] (50 mg/kg po qd/14, end of the trial (d14)) is listed as 7.29%.
Turning to `CNC(=O)c1ccc(-c2ccc3ncc(S(=O)(=O)n4ncc5ncc(-c6cnn(CCN(C)C)c6)cc54)n3c2)cc1F` [Example 102, 1-{(6-(3-fluoro-4-methylaminocarbonylphenyl)-imidazo[1,2-a]pyridine)-3-sulfonyl}-6-[(2-dimethylaminoethyl)-4-pyrazolyl]-1-H-pyrazolo[4,3-b]pyridine], in series [1], the inhibition at 10 µM is above 65.5%. The inhibition at 0.2 µM in series [5] (MKN-45, read-out: Cell proliferation inhibition rate at 200 nM (%), MKN45, 200 nM) stood at 63.8%. The inhibition at 1 µM in series [5] (MKN-45, read-out: Cell proliferation inhibition rate at 1 μM (%), MKN45, 1 μM) came to 67.9%. Also, in series [3], the inhibition at 0.1 µM worked out at 73.7%, the inhibition at 1 µM is 85.3% and the inhibition at 10 µM came to 95.4%.
